# pEC50, pIC50: −log10 of the molar value. Read-outs that look alike come from different tables or passages of the source.
# How the values were obtained:
# HUVEC tube formation [1] = assay: Endothelial cell tube formation assay, stimulator studies on modified matrix; assay type: cell-based, human; settings: modified matrix (inventive), total tube length, n=4
# Method: (§1) With reference to FIG. 1, angiogenesis stimulators can be evaluated for their ability to enhance HUVEC tube formation using the compositions and cell culturing systems of the present invention. […] The bottom surface of the wells are shown as coated with the modified matrix composition of the present invention. On day 1, a potential angiogenesis stimulator is added to the coated surface, along with endothelial cells in cell medium. […] In inhibitor studies, the potential inhibitor is included in a well, in addition to at least one known stimulator and the endothelial cells in cell medium. After an appropriate incubation period, typically 24 hours at 37° C./5% CO2 (day 2), images of the wells are acquired, and tube length is quantified as a measure of cell tube formation.
# Known stimulators were chosen to evaluate the performance of an inventive basement membrane composition vs. a prior basement membrane composition. The chosen stimulators were bFGF and spinosine-1-phosphate (S1P). […]
# At the end of each assay, assay medium was removed and plates were washed once with HBSS. […] Total tube length of each well was measured using a revised (from previous) MetaMorph® Journal. Excel data was imported and analyzed using BD Gentest MPM/ADMET Software Program from BD Biosciences Discovery Labware. […]
# HUVEC tube formation [2] = assay: Endothelial cell tube formation assay, inhibitor studies on modified matrix (tube formation induced by bFGF or S1P); assay type: cell-based, human; settings: for Effect on S1P induced HUVEC tube formation: S1P 1 μM; for pIC50: Homo sapiens, HUVEC
# Method: as §1
# Known stimulators were chosen to evaluate the performance of an inventive basement membrane composition vs. a prior basement membrane composition. The chosen stimulators were bFGF and spinosine-1-phosphate (S1P). Coated plates prepared as described above in Example 2 were thawed at about 4° C. for a period of about 4 to 5 hours. The components of the composition were then allowed to polymerize at 37° C., 5% CO2 for approximately 30 minutes immediately before assay setup. For stimulator studies, HUVEC (P3-P5) were harvested at about 70% cell confluence. About 50 μl of cells at 4×10^5/ml in 0.1% FBS/EBM-2 medium supplemented with or without the angiogenesis stimulators were seeded onto 96-well plates containing the pre-solidified (i.e., polymerized) modified reconstituted basement membrane composition (inventive) or a standard Matrigel® matrix (BD Growth Factor Reduced Matrigel® Matrix). The assembled assays were allowed to incubate in a 37° C. incubator with 5% CO2 for approximately 16 to 18 hours. Compounds were dissolved in DMF or water according to manufacturer's instructions.
# At the end of each assay, assay medium was removed and plates were washed once with HBSS. 50 μl Calcein AM at 8 μg/ml in HBSS was added to each well and plates were incubated in a 37° C./5% CO2 incubator for 35 minutes followed by washing once in HBSS. Images were acquired with a 2× objective lens on an automated Gen-1 Cell-based Screening System (Universal Imaging Corporation™). Total tube length of each well was measured using a revised (from previous) MetaMorph® Journal. Excel data was imported and analyzed using BD Gentest MPM/ADMET Software Program from BD Biosciences Discovery Labware.
# Inhibitor studies were performed as generally described in Example 4, except that for these studies, an inhibitor was included in the assay, in addition to a known stimulator. Data was obtained on the modified matrix (inventive). […] Stimulators, bFGF or S1P, were added to HUVECs at 20 ng/ml and 1 μM, respectively. Suramin of indicated concentrations was added to HUVEC in bFGF or S1P prior to adding the mixtures to each well. Each data point represents the mean+/−standard deviation (n=4).
# With reference now to FIG. 5, the effects of inhibitors (SU5402 and Suramin) on HUVEC tube formation induced by stimulators (bFGF and S1P) is shown. Data was obtained on the modified matrix (inventive). Stimulators, bFGF or S1P, were added to HUVECs in EBM-2 containing 0.1% FBS at a final concentration of 20 ng/ml and 1 μM, respectively. Suramin at 15 μM (in medium) or SU5402 at 25 μM (in 0.1% DMF) were added to HUVECs in 0.1% FBS, or bFGF, or S1P, prior to adding the mixtures to the wells. […] Each bar represents the mean+/−standard deviation (n=4).
molecule,measurement,setting,value
"CCCCCCCCCCCCC/C=C/[C@@H](O)[C@@H](N)COP(=O)(O)O [S1P, sphinosine-1-phosphate]",pEC50,HUVEC tube formation [1]; read-out: EC50 in inducing HUVEC tube formation,6.50
Cc1c[nH]c(/C=C2\C(=O)Nc3ccccc32)c1CCC(=O)O [SU5402],Effect on S1P induced HUVEC tube formation,"HUVEC tube formation [2]; SU5402 at 25 μM (in 0.1% DMF), modified matrix, FIG. 5",partially inhibited
same,Effect on HUVEC tube formation stimulated by bFGF,"HUVEC tube formation [2]; SU5402 at 25 μM (in 0.1% DMF), bFGF 20 ng/ml, modified matrix, FIG. 5",completely inhibited
Cc1ccc(C(=O)Nc2ccc(S(=O)(=O)O)c3cc(S(=O)(=O)O)cc(S(=O)(=O)O)c23)cc1NC(=O)c1cccc(NC(=O)Nc2cccc(C(=O)Nc3cc(C(=O)Nc4ccc(S(=O)(=O)O)c5cc(S(=O)(=O)O)cc(S(=O)(=O)O)c45)ccc3C)c2)c1 [Suramin],pIC50,HUVEC tube formation [2]; read-out: IC50 of inhibition of tube formation stimulated by S1P,4.97
same,pIC50,HUVEC tube formation [2]; read-out: IC50 of inhibition of tube formation stimulated by bFGF,5.14
same,Effect on S1P induced HUVEC tube formation,"HUVEC tube formation [2]; Suramin at 15 μM (in medium), modified matrix, FIG. 5",inhibited
same,Effect on bFGF induced HUVEC tube formation,"HUVEC tube formation [2]; Suramin at 15 μM (in medium), bFGF 20 ng/ml, modified matrix, FIG. 5",inhibited
bFGF: known angiogenesis stimulator; fibroblast growth factor (basic FGF),EC50 in inducing HUVEC tube formation,HUVEC tube formation [1],1.5 ng/mL
